The test system of one test is Enterobacter aerogenes. As to the kind of experiment: Minimum inhibitory concentration (MIC), nutrient agar. The test is classed as cell-based, Enterobacter aerogenes (ATCC 13048). As to conditions: Ea, 30° C., 48 hours. On the procedure:
(§1) The minimum inhibitory concentration (MIC) for compounds of this invention, listed in Table I, is determined for 9 bacteria, using nutrient agar, and 7 yeast and fungi, using malt yeast agar. A one percent solution of a compound is prepared in a mixture of acetone and water. Nutrient agar is prepared at pH 6.8, representing a neutral medium, and at pH 8.2, representing an alkaline medium. The nutrient agars are prepared by adding 23 g of nutrient agar to one-liter of deionized water. In addition, the alkaline medium is prepared by adjusting a 0.04M solution of N-[tris-(hydroxymethyl)methyl]-glycine buffered deionized water with concentrated sodium hydroxide to a pH of […]. Malt yeast agar is prepared by adding 3 g yeast extract and 45 g malt agar per liter of deionized water. The specific agar is dispensed in 30 ml aliquots into 25×200 mm test tubes, capped and autoclaved for 15 minutes at 115° C. The test tubes containing the agar are cooled in a water bath until the temperature of the agar is 48° C. Then, an appropriate amount of the one percent solution of the compound is added (except in the controls where no compound is added) to the respective test tubes so that the final concentrations are 500, 250, 100, 50, 25, 10, 5, 2.5, 1.0 and zero parts per million of the compound in the agar, thus having a known concentration of compound dispersed therein. The contents of the test tubes are then transferred to respective petri plates. After drying for 24 hours, the petri plates containing nutrient agar are inoculated with bacteria and those containing malt yeast agar are inoculated with yeast and fungi.
(§2) The inoculation with bacteria is accomplished by using the following procedure. Twenty-four hour-cultures of each of the bacteria are prepared by incubating the respective bacteria in tubes containing nutrient broth for 24 hours at 30° C. in a shaker. Dilutions of each of the 24 hour-cultures are made so that nine separate suspensions (one for each of the nine test bacteria) are made, each containing 10^8 colony forming units (CFU) per milliliter of suspension of a particular bacteria. Aliquots of 0.3 ml of each of the bacterial suspensions are used to fill the individual wells of Steer's Replicator. For each microbial suspension 0.3 ml was used to fill three wells (i.e., three wells of 0.3 ml each) […] to inoculate both the neutral and alkaline pH nutrient agar petri plates.
(§3) The inoculated petri plates are incubated at 30° C. for 48 hours and then read to determine if the compound which is incorporated into the agar prevented growth of the respective bacteria. […]

The next test has as its system Penicillium chrysogenum. As to the kind of experiment: Minimum inhibitory concentration (MIC), malt yeast agar. The test is classed as cell-based, Penicillium chrysogenum (ATCC 9480). As to conditions: Pc, 30° C., 72 hours (fungi). Here is the method: (§4) The minimum inhibitory concentration (MIC) for compounds of this invention, listed in Table I, is determined for 9 bacteria, using nutrient agar, and 7 yeast and fungi, using malt yeast agar. A one percent solution of a compound is prepared in a mixture of acetone and water. Nutrient agar is prepared at pH 6.8, representing a neutral medium, and at pH 8.2, representing an alkaline medium. The nutrient agars are prepared by adding 23 g of nutrient agar to one-liter of deionized water. In addition, the alkaline medium is prepared by adjusting a 0.04M solution of N-[tris-(hydroxymethyl)methyl]-glycine buffered deionized water with concentrated sodium hydroxide to a pH of […]. Malt yeast agar is prepared by adding 3 g yeast extract and 45 g malt agar per liter of deionized water. The specific agar is dispensed in 30 ml aliquots into 25×200 mm test tubes, capped and autoclaved for 15 minutes at 115° C. The test tubes containing the agar are cooled in a water bath until the temperature of the agar is 48° C. […]
(§5) The inoculation with the yeast and fungi is accomplished as follows. […] The petri plates are incubated at 30° C. and read after 48 hours for yeast and 72 hours for fungi. […]

A further test deals with Bacillus subtilis. In words: Minimum inhibitory concentration (MIC), nutrient agar. Type of test: cell-based, Bacillus subtilis (ATCC 8473). Conditions: Bs, 30° C., 48 hours. Here is the method: as §1, §2, §3
The next test concerns Salmonella choleraesuis. The description is as above. The test is classed as cell-based, Salmonella choleraesuis (ATCC 10708). As to conditions: Sc, 30° C., 48 hours. On the procedure:
as §1, §2, §3

For the next test, the system named is Candida albicans. In words: Minimum inhibitory concentration (MIC), malt yeast agar. The test is classed as cell-based, Candida albicans (ATCC 10231). As to conditions: Ca, 30° C., 48 hours (yeast). Here is the method: as §4, §5
A further test relates to Proteus vulgaris. In words: Minimum inhibitory concentration (MIC), nutrient agar. As to conditions: Pv, 30° C., 48 hours. Type of test: cell-based, Proteus vulgaris (ATCC 881). On the procedure: as §1, §2, §3
The subject of the next test is Saccharomyces cerevisiae. As to the kind of experiment: Minimum inhibitory concentration (MIC), malt yeast agar. The test is classed as cell-based, Saccharomyces cerevisiae (ATCC 4105). As to conditions: Sc, 30° C., 48 hours (yeast). Here is the method:
as §4, §5

For a further test, the system named is Aspergillus niger. The test is described as above. The test is classed as cell-based, Aspergillus niger (ATCC 16404). Conditions: An, 30° C., 72 hours (fungi). On the procedure:
as §4, §5

The subject of a further test is Staphylococcus aureus. As to the kind of experiment: Minimum inhibitory concentration (MIC), nutrient agar. Conditions: Sa, 30° C., 48 hours. Type of test: cell-based, Staphylococcus aureus (ATCC 6538). On the procedure: as §1, §2, §3
The test system of a further test is Escherichia coli. Described as above. The test is classed as cell-based, Escherichia coli (ATCC 11229). As to conditions: Ec, 30° C., 48 hours. Here is the method: as §1, §2, §3
The next test has as its system Trichoderma viride. In words: Minimum inhibitory concentration (MIC), malt yeast agar. The test is classed as cell-based, Trichoderma viride (ATCC 8678). Conditions: Tv, 30° C., 72 hours (fungi). On the procedure:
as §4, §5

In test [1] the test system is Pseudomonas aeruginosa (PRD-10). In words: Minimum inhibitory concentration (MIC), nutrient agar. The test is classed as cell-based, Pseudomonas aeruginosa (ATCC 15442). As to conditions: 30° C., 48 hours. Here is the method:
as §1, §2, §3

The next test deals with Klebsiella pneumoniae. The description is as above. The test is classed as cell-based, Klebsiella pneumoniae (ATCC 8308). Conditions: Kp, 30° C., 48 hours. On the procedure:
as §1, §2, §3

Test [2] relates to Pseudomonas aeruginosa (Pa). Described as above. Type of test: cell-based, Pseudomonas aeruginosa (ATCC 10145). Conditions: 30° C., 48 hours. Here is the method:
as §1, §2, §3

A further test concerns Fusarium oxysporum. As to the kind of experiment: Minimum inhibitory concentration (MIC), malt yeast agar. Conditions: Fo, 30° C., 72 hours (fungi). The test is classed as cell-based, Fusarium oxysporum (ATCC 48112). On the procedure:
as §4, §5

Bounds are passed on as bounds.

For the compound `COP(=O)(C=C(Cl)C#N)OC` [Compound A, Phosphonic acid, (2-chloro-2-cyanoethenyl)-dimethyl ester], the “Minimum Inhibitory Concentration (MIC)” value was 500 ppm in the test on Enterobacter aerogenes (pH 6.8, nutrient agar); greater than 500 ppm in the test on Enterobacter aerogenes (pH 8.2, nutrient agar); 50 ppm in the test on Penicillium chrysogenum; 25 ppm with Bacillus subtilis (pH 6.8, nutrient agar); 500 ppm in the test on Bacillus subtilis (pH 8.2, nutrient agar); 250 ppm in the test on Salmonella choleraesuis (pH 6.8, nutrient agar). In addition, the “Minimum Inhibitory Concentration (MIC)” value is on record as greater than 500 ppm in the test with Salmonella choleraesuis (pH 8.2, nutrient agar); 100 ppm in the test on Candida albicans; 250 ppm in the test with Proteus vulgaris (pH 6.8, nutrient agar); greater than 500 ppm with Proteus vulgaris (pH 8.2, nutrient agar); 100 ppm in the test with Saccharomyces cerevisiae; 250 ppm in the test with Aspergillus niger. Further, the “Minimum Inhibitory Concentration (MIC)” value in the test with Staphylococcus aureus (pH 6.8, nutrient agar) was 50 ppm; with Staphylococcus aureus (pH 8.2, nutrient agar), greater than 10 ppm; with Escherichia coli (pH 6.8, nutrient agar) it was 250 ppm; with Escherichia coli (pH 8.2, nutrient agar) it was greater than 500 ppm; in the test on Trichoderma viride it was 100 ppm; in test [1] (pH 6.8, nutrient agar), 500 ppm. Also, the “Minimum Inhibitory Concentration (MIC)” value in [1] (pH 8.2, nutrient agar) was greater than 500 ppm; in the test with Klebsiella pneumoniae (pH 6.8, nutrient agar), 250 ppm; in the test on Klebsiella pneumoniae (pH 8.2, nutrient agar) it was 500 ppm; in test [2] (pH 6.8, nutrient agar) it was 500 ppm; in test [2] (pH 8.2, nutrient agar) it was greater than 500 ppm; with Fusarium oxysporum, 50 ppm.
As to `CCOP(=O)(C=C(Cl)C#N)OCC` [Compound B, Phosphonic acid, (2-chloro-2-cyanoethenyl)-diethyl ester], the “Minimum Inhibitory Concentration (MIC)” value with Enterobacter aerogenes (pH 6.8, nutrient agar) is recorded as 100 ppm; in the test on Enterobacter aerogenes (pH 8.2, nutrient agar), greater than 500 ppm; in the test with Penicillium chrysogenum, 100 ppm; in the test with Bacillus subtilis (pH 6.8, nutrient agar), 25 ppm; with Bacillus subtilis (pH 8.2, nutrient agar) it was greater than 500 ppm; in the test on Salmonella choleraesuis (pH 6.8, nutrient agar), 25 ppm. The “Minimum Inhibitory Concentration (MIC)” value with Salmonella choleraesuis (pH 8.2, nutrient agar) was greater than 500 ppm; in the test with Candida albicans, 100 ppm; in the test on Proteus vulgaris (pH 6.8, nutrient agar) it was 25 ppm; with Proteus vulgaris (pH 8.2, nutrient agar) it was greater than 500 ppm; in the test with Saccharomyces cerevisiae, 250 ppm; in the test with Aspergillus niger, 250 ppm. The “Minimum Inhibitory Concentration (MIC)” value is 25 ppm in the test on Staphylococcus aureus (pH 6.8, nutrient agar); greater than 500 ppm in the test on Staphylococcus aureus (pH 8.2, nutrient agar); 50 ppm in the test on Escherichia coli (pH 6.8, nutrient agar); greater than 500 ppm in the test with Escherichia coli (pH 8.2, nutrient agar); 100 ppm in the test on Trichoderma viride; 250 ppm in test [1] (pH 6.8, nutrient agar). In addition, the “Minimum Inhibitory Concentration (MIC)” value in [1] (pH 8.2, nutrient agar) is greater than 500 ppm; with Klebsiella pneumoniae (pH 6.8, nutrient agar) it was 50 ppm; with Klebsiella pneumoniae (pH 8.2, nutrient agar) it was greater than 500 ppm; in test [2] (pH 6.8, nutrient agar), 250 ppm; in [2] (pH 8.2, nutrient agar), greater than 500 ppm; in the test with Fusarium oxysporum, 50 ppm.
